PMC7047876, “Potent Chimeric Antimicrobial Derivatives of the Medicago truncatula NCR247 Symbiotic Peptide” (Frontiers in Microbiology, 2020)
Values after ≈ are worked out from the molar mass of the structure shown. “Also recorded” adds a separate entry of the source. Read-outs that look alike come from different tables or passages of the source. Peptide text beside a SMILES is read from it.

What was measured:
Type in all cases: cell-based
[1] = system: Pseudomonas aeruginosa (ATCC 27853); test: microbe, parasite or virus in culture; conditions: 3 h treatment in PPB (20 mM potassium-phosphate buffer, pH 7.4), 37°C, then plating on LB agar, read-out: Minimal bactericidal concentration (MBC) P. a.
Excerpt: (§1) The pathogenic bacterial strains obtained from the ATCC (United States) and NCTC (National Collection of Type Cultures – England) were the Gram-positive: Enterococcus faecalis (ATCC 29212), Staphylococcus aureus (HNCMO112011), Listeria monocytogenes (ATCC 19111) and the Gram-negative: Pseudomonas aeruginosa (ATCC 27853), Escherichia coli (ATCC 8739), Salmonella enterica (ATCC 13076), Klebsiella pneumoniae (NCTC 13440), Acinetobacter baumannii (ATCC 17978).
(§2) Overnight bacterial cultures grown in LB were diluted and grown to OD600 = 0.2–0.6 at 37°C with shaking. After harvesting and washing bacteria in PPB, the suspensions were adjusted to OD600 = 0.1 corresponding to ∼10^7 bacteria/mL. Antimicrobial activity of the peptides and the antibiotics was determined in PPB in 96 well microplates using 10 μL bacterial suspension and 90 μL of the 2-fold serial dilutions of peptides or antibiotics. Peptides were tested from 25 μM to 0.125 μM whereas the antibiotics; carbenicillin (Cb) from Duchefa Biochemie (Prod.No. C0109.0025) and levofloxacin (Lvx) from Sigma-Aldrich (Prod.No. 28266-10MG-F) from […] to 0.1 μM. The microplates were incubated for 3 h at 37°C with 250 rpm shaking and then 5 μl from each sample was placed on LB agar and the growth of bacteria was monitored after overnight incubation at 37°C. The lowest concentration of the antimicrobial agents, which completely eliminated viable bacteria was the minimal bactericidal concentration (MBC).

[2] = system: Staphylococcus aureus (HNCMO112011); test: microbe, parasite or virus in culture; conditions: 3 h treatment in PPB (20 mM potassium-phosphate buffer, pH 7.4), 37°C, then plating on LB agar, read-out: Minimal bactericidal concentration (MBC) S. a.
Excerpt: as §1, §2

[3] = system: Salmonella enterica (ATCC 13076); test: microbe, parasite or virus in culture; conditions: 3 h treatment in PPB (20 mM potassium-phosphate buffer, pH 7.4), 37°C, then plating on LB agar, read-out: Minimal bactericidal concentration (MBC) S. e.
Excerpt: as §1, §2

[4] = system: Acinetobacter baumannii (ATCC 17978); test: microbe, parasite or virus in culture; conditions: 3 h treatment in PPB (20 mM potassium-phosphate buffer, pH 7.4), 37°C, then plating on LB agar, read-out: Minimal bactericidal concentration (MBC) A. b.
Excerpt: as §1, §2

[5] = system: Listeria monocytogenes (ATCC 19111); test: microbe, parasite or virus in culture; conditions: 3 h treatment in PPB (20 mM potassium-phosphate buffer, pH 7.4), 37°C, then plating on LB agar, read-out: Minimal bactericidal concentration (MBC) L. m.
Excerpt: as §1, §2

[6] = system: Enterococcus faecalis (ATCC 29212); test: microbe, parasite or virus in culture; conditions: 3 h treatment in PPB (20 mM potassium-phosphate buffer, pH 7.4), 37°C, then plating on LB agar, read-out: Minimal bactericidal concentration (MBC) E. f.
Excerpt: as §1, §2

[7] = system: Escherichia coli (ATCC 8739); test: microbe, parasite or virus in culture; conditions: 3 h treatment in PPB (20 mM potassium-phosphate buffer, pH 7.4), 37°C, then plating on LB agar, read-out: Minimal bactericidal concentration (MBC) E. c.
Excerpt: as §1, §2

[8] = system: Klebsiella pneumoniae (NCTC 13440); test: microbe, parasite or virus in culture; conditions: 3 h treatment in PPB (20 mM potassium-phosphate buffer, pH 7.4), 37°C, then plating on LB agar, read-out: Minimal bactericidal concentration (MBC) K. p.
Excerpt: as §1, §2

[9] = system: ESKAPE bacteria, L. monocytogenes and S. enterica; test: Antimicrobial activity in PPB, summarised over the tested bacteria; conditions: for MBC, range over the tested bacteria as summarised in the text: 3 h in PPB, carbenicillin range excludes L. monocytogenes, peptide G range excludes E. faecalis
Excerpt: as §1, §2

[10] = system: human melanoma A375 cells; test: XTT cell proliferation (cytotoxicity) assay; conditions: 72 h treatment, OD450, three biological repeats
Experimental: The cytotoxicity of peptides X1-NCR247C and NCR247C-X2 was determined against the human melanoma A375 cells with XTT cell proliferation assay kit (PanReac Applichem) and a benchtop microplate reader (Multiskan RC, Thermo Labsystems) according to the manufacturers’ instructions. A375 human melanoma cell line was obtained from ATCC and maintained in DMEM (Lonza) supplemented by 10% FBS (Euroclone) in a humidified incubator at 37°C and 5% CO2. A375 cells were seeded to 96-well plates (4,000 cells/well) and treated with the peptides for 72 h. Cells without peptides served as negative control and the blank sample was the medium. Reduction of the tetrazolium salt XTT by the viable cells to the orange colored compounds of formazan was measured at OD450. The XTT assay was performed in three biological repeats.

Acinetobacter baumannii = conditions: MHB; for MBC in Mueller Hinton Broth, panel (A), A. b.: 3 h treatment; for MBC in Mueller Hinton Broth, panel (A), A. b. / MBC in Mueller Hinton Broth, panel (B), A. b.: 37°C (panel assigned); for MIC in Mueller Hinton Broth, panel (C), A. b.: 20 h cultivation, 37°C, optical density (panel assigned); for MBC in Mueller Hinton Broth, panel (B), A. b.: 20 h treatment
Excerpt: as §1
(§3) Ca^2+ and Mg^2+ can inhibit the antimicrobial activity of cationic peptides, therefore the MBC and MIC values were also determined in MHB, which unlike PPB contains divalent cations and allows growth of bacteria. Bacteria were grown and prepared similarly except that bacteria were resuspended in MHB. 10 μl of bacteria OD600 = 0.1, supplemented with 45 μl MHB and 45 μl of 2-fold dilution series of peptides, were cultivated for 3 and 20 h at 37°C with shaking. Optical density of each sample was measured (Hidex Sense Microplate Reader with Plate Reader Software version 5064) and 5 μl was placed on LB agar plates after 3 and 20 h treatment. The minimal inhibitory concentration (MIC) corresponded to the lowest concentration, which inhibited growth.

Staphylococcus aureus = conditions: MHB; for MBC in Mueller Hinton Broth, panel (A), S. a.: 3 h treatment; for MBC in Mueller Hinton Broth, panel (A), S. a. / MBC in Mueller Hinton Broth, panel (B), S. a.: 37°C (panel assigned); for MIC in Mueller Hinton Broth, panel (C), S. a.: 20 h cultivation, 37°C, optical density (panel assigned); for MBC in Mueller Hinton Broth, panel (B), S. a.: 20 h treatment
Excerpt: as §1, §3

Escherichia coli = conditions: MHB; for MBC in Mueller Hinton Broth, panel (A), E. c.: 3 h treatment; for MBC in Mueller Hinton Broth, panel (A), E. c. / MBC in Mueller Hinton Broth, panel (B), E. c.: 37°C (panel assigned); for MIC in Mueller Hinton Broth, panel (C), E. c.: 20 h cultivation, 37°C, optical density (panel assigned); for MBC in Mueller Hinton Broth, panel (B), E. c.: 20 h treatment
Excerpt: as §1, §3

[11] = Pseudomonas aeruginosa, ATCC27853
[12] = Acinetobacter baumannii, ATCC17978
[13] = Listeria monocytogenes, ATCC19111
[14] = Enterococcus faecalis, ATCC29212
[15] = Klebsiella pneumoniae, NCTC13440

Row | Compound | MBC [1, 11] [µM] | MBC ([2]; Staphylococcus aureus) [µM] | MBC ([3]; Salmonella enterica, ATCC13076) [µM] | MBC [4, 12] [µM] | MBC [5, 13] [µM] | MBC [6, 14] [µM] | MBC ([7]; Escherichia coli, ATCC8739) [µM] | MBC [8, 15] [µM] | MBC, range over the tested bacteria as summarised in the text [9] [µM] | MBC [1] [µM] | MBC [2] [µM] | MBC [3] [µM] | MBC [4] [µM] | MBC [5] [µM] | MBC [6] [µM] | MBC [7] [µM] | MBC [8] [µM] | MBC in Mueller Hinton Broth, panel (A), A. b. (Acinetobacter baumannii) [µM] | MIC in Mueller Hinton Broth, panel (C), A. b. (Acinetobacter baumannii) [µM] | MBC in Mueller Hinton Broth, panel (B), A. b. (Acinetobacter baumannii) [µM] | further results
1 | CC1(C)S[C@@H]2[C@H](NC(=O)C(C(=O)O)c3ccccc3)C(=O)N2[C@H]1C(=O)O (stereo partly drawn) [Cb, carbenicillin, reference compound] | 10200 (≈ 3870 µg/mL) | 640 (≈ 242 µg/mL) | 640 (≈ 242 µg/mL) | 5120 (≈ 1940 µg/mL) | 80 (≈ 30.3 µg/mL) | 5120 (≈ 1940 µg/mL) | 1280 (≈ 484 µg/mL) | > 10200 | 640 to 10240 | – | – | – | – | – | – | – | – | – | – | – | –
2 | CC[C@H](C)[C@H](NC(=O)[C@H](CCCCN)NC(=O)[C@H](CCCCN)NC(=O)[C@H](C)NC(=O)[C@H](CC(C)C)NC(=O)[C@H](C)NC(=O)[C@H](C)NC(=O)[C@H](CC(C)C)NC(=O)[C@H](C)NC(=O)[C@H](CCCCN)NC(=O)[C@H](CCCNC(=N)N)NC(=O)[C@H](CCCNC(=N)N)NC(=O)[C@H](CCCNC(=N)N)NC(=O)[C@H](CS)NC(=O)[C@H](Cc1ccc(O)cc1)NC(=O)[C@H](CC(C)C)NC(=O)[C@@H]1CCCN1C(=O)[C@H](CCCNC(=N)N)NC(=O)[C@H](CCCNC(=N)N)NC(=O)[C@H](CS)NC(=O)[C@H](CCC(N)=O)NC(=O)[C@@H](N)CCC(N)=O)C(=O)N[C@@H](CC(C)C)C(N)=O [F, NCR247C-X2] (H-QQCRRPLYCRRRKALAALAKKIL-NH2; N-terminus assumed) | – | – | – | – | – | – | – | – | – | – | – | – | – | – | – | – | – | – | – | – | Cytotoxicity / viability of A375 cells [10]: no cytotoxicity up to 12.5 μM; also recorded: slight decrease of the viable cell number was observed at 25 μM
3 | CC[C@H](C)[C@H](NC(=O)[C@H](CCCCN)NC(=O)[C@H](CCCCN)NC(=O)[C@H](C)NC(=O)[C@H](CC(C)C)NC(=O)[C@H](C)NC(=O)[C@H](C)NC(=O)[C@H](CC(C)C)NC(=O)[C@H](C)NC(=O)[C@@H](N)CCCCN)C(=O)N[C@@H](CC(C)C)C(N)=O [I, X2] (H-KALAALAKKIL-NH2) | – | – | – | – | – | – | – | – | – | 6.3 (≈ 7.17 µg/mL) | 25 (≈ 28.5 µg/mL) | >25 | 25 (≈ 28.5 µg/mL) | 25 (≈ 28.5 µg/mL) | >25 | >25 | >25 | > 25 | 25 (≈ 28.5 µg/mL) | >25 | MBC in Mueller Hinton Broth, panel (A), S. a. (Staphylococcus aureus): > 25 µM; MIC in Mueller Hinton Broth, panel (C), S. a. (Staphylococcus aureus): >25 µM; MBC in Mueller Hinton Broth, panel (B), S. a. (Staphylococcus aureus): >25 µM; MBC in Mueller Hinton Broth, panel (A), E. c. (Escherichia coli): > 25 µM; MIC in Mueller Hinton Broth, panel (C), E. c. (Escherichia coli): >25 µM; MBC in Mueller Hinton Broth, panel (B), E. c. (Escherichia coli): >25 µM
4 | CC[C@H](C)[C@H](NC(=O)[C@H](CCCCN)NC(=O)[C@H](CCCCN)NC(=O)[C@H](C)NC(=O)[C@H](CC(C)C)NC(=O)[C@H](C)NC(=O)[C@H](C)NC(=O)[C@H](CC(C)C)NC(=O)[C@H](C)NC(=O)[C@H](CCCCN)NC(=O)[C@H](CC(C)C)NC(=O)[C@H](CC(N)=O)NC(=O)[C@@H](NC(=O)[C@H](CCCCN)NC(=O)CNC(=O)[C@H](CC(C)C)NC(=O)[C@H](CC(C)C)NC(=O)[C@H](Cc1ccc(O)cc1)NC(=O)CNC(=O)[C@H](C)NC(=O)[C@H](CO)NC(=O)[C@H](CC(N)=O)NC(=O)[C@H](CC(C)C)NC(=O)[C@@H](NC(=O)[C@H](Cc1c[nH]c2ccccc12)NC(=O)CN)[C@@H](C)O)[C@@H](C)CC)C(=O)N[C@@H](CC(C)C)C(N)=O [J, Transportan, reference compound] | – | – | – | – | – | – | – | – | – | 3.1 (≈ 8.81 µg/mL) | 3.1 (≈ 8.81 µg/mL) | 1.6 (≈ 4.54 µg/mL) | 1.6 (≈ 4.54 µg/mL) | 3.1 (≈ 8.81 µg/mL) | 3.1 (≈ 8.81 µg/mL) | 3.1 (≈ 8.81 µg/mL) | 3.1 (≈ 8.81 µg/mL) | 3.1 (≈ 8.81 µg/mL) | 3.1 (≈ 8.81 µg/mL) | 3.1 (≈ 8.81 µg/mL) | MBC in Mueller Hinton Broth, panel (A), S. a. (Staphylococcus aureus): 6.3 µM (≈ 17.9 µg/mL); MIC in Mueller Hinton Broth, panel (C), S. a. (Staphylococcus aureus): 3.1 µM (≈ 8.81 µg/mL); MBC in Mueller Hinton Broth, panel (B), S. a. (Staphylococcus aureus): 3.1 µM (≈ 8.81 µg/mL); MBC in Mueller Hinton Broth, panel (A), E. c. (Escherichia coli): 6.3 µM (≈ 17.9 µg/mL); MIC in Mueller Hinton Broth, panel (C), E. c. (Escherichia coli): 3.1 µM (≈ 8.81 µg/mL); MBC in Mueller Hinton Broth, panel (B), E. c. (Escherichia coli): 6.3 µM (≈ 17.9 µg/mL)
5 | C[C@H]1COc2c(N3CCN(C)CC3)c(F)cc3c(=O)c(C(=O)O)cn1c23 [Lvx, levofloxacin, reference compound] | 1.3 (≈ 0.47 µg/mL) | 2.5 (≈ 0.903 µg/mL) | 1.3 (≈ 0.47 µg/mL) | 20 (≈ 7.23 µg/mL) | 320 (≈ 116 µg/mL) | 160 (≈ 57.8 µg/mL) | 5 (≈ 1.81 µg/mL) | 320 (≈ 116 µg/mL) | 1.25 to 320 | – | – | – | – | – | – | – | – | – | – | – | –
6 | RNGCIVDPRCPY [N-terminal part, 12 amino acid long N-terminal half of NCR247] | – | – | – | – | – | – | – | – | – | – | – | – | – | – | – | – | – | – | – | – | Antimicrobial activity on the tested bacteria ([9]; PPB, peptides tested up to 25 μM): inactive
